Patent publication US20090246186A1, “AGENT FOR IMPROVING NERVOUS SYSTEM CELL FUNCTIONS” (KANEKA CORPORATION, priority 2006, published 2009)

Key:
SAMP8 mice = assay: Step-through passive avoidance learning experiment; type: in vivo, mouse
Source text: Aging promoted mouse (SAMP8,3-week-old, male, each group N=8−10) models were divided into a group given a feed (CE-2, manufactured by (LEA Japan, Inc.) containing 0.5% of reduced coenzyme Q10 (containing about 1% oxidized coenzyme Q10) obtained in Production Example 1 and a group given a basic feed (CE-2, manufactured by CLEA Japan, Inc.) alone as a control group. The both groups were allowed a free access to the feed. The dose of reduced coenzyme Q10 obtained from the ingested amount of the feed and the body weight of the animal generally corresponded to 300-500 mg/kg/day.
The effect of reduced coenzyme Q for the learning and memory function was examined by a step-through passive avoidance learning experiment. When SAMP8 mice were placed in a light compartment of an apparatus consisting of two light and dark compartments, they enter the dark compartment since mouse prefers darkness. The mice were taught that the dark compartment was dangerous by applying an electric current (0.5 mA) for 3 sec from the floor of the dark compartment (acquisition trial). […]
To be specific, the mice were placed in the same apparatus again, and the time of stay in the light compartment was measured, based on which the learning, memory function of the mice was compared between with and without ingestion of reduced coenzyme Q in the present invention. […]

[1] = system: normal rat or spontaneously diabetic rat; conditions: cited from earlier work
PC12 cells = assay: Nerve cell protection on hydrogen peroxide-induced cell death (intracellular ATP amount); type: cell-based; conditions: 25, 50, 100 μg/ml for 24 hr, then 0.06 mM hydrogen peroxide; compared with oxidized coenzyme Q10
Protocol: As one of the causes of the nerve cell death, active oxygen species produced for various reasons is known. Therefore, a cell death protecting action of reduced coenzyme Q10 when PC12 cells are exposed to hydrogen peroxide was examined. PC12 cells were cultured in Dulbecco's Modified Eagle Medium containing 200 units of penicillin, 0.1 μg/ml streptomycin, and 10% fetal bovine serum under 37° C., 5% CO2 conditions. The cells were plated to a 96 well microplate at 1×10^4 cells/well, and cultured under the conditions of 37° C., 5% CO2. After 24 hr, the medium was removed and substituted with Dulbecco's Modified Eagle Medium containing 200 units of penicillin, […] streptomycin and 0.5% fetal bovine serum and supplemented with reduced coenzyme Q10 and oxidized coenzyme Q10 (25, 50, 100 μg/ml). After 24 hr, the medium was removed, and the cells were exposed to hydrogen peroxide so that the final concentration in the same medium would be 0.06 mM 24 hr later, and cultured under the conditions of 37° C., 5% CO2 for 15 min. The cells were washed 3 times with PBS, and the intracellular ATP amount was measured using an ATP quantify kit (Perkin Elmer) and compared.

[2] = system: model mouse with Parkinson's disease; conditions: cited from earlier work
rat = conditions: 1.2 g/kg/day for 52 consecutive weeks; cited from earlier work

COc1c(O)c(C)c(C/C=C(\C)CC/C=C(\C)CC/C=C(\C)CC/C=C(\C)CC/C=C(\C)CC/C=C(\C)CC/C=C(\C)CC/C=C(\C)CC/C=C(\C)CCC=C(C)C)c(O)c1OC [reduced coenzyme Q10]
response latency time (passive avoidance test) (SAMP8 mice; feed containing 0.5% reduced coenzyme Q10 (300-500 mg/kg/day), after 8 weeks (11-week-old), vs control group): the number of mouse that showed a prolonged response latency time increased | learning and memory disorder-improving effect (SAMP8 mice; short time administration, feed containing 0.5% reduced coenzyme Q10, 8 weeks): a learning and memory disorder-improving effect was observed | tissue degeneration caused by oxidative stress in the pancreas ([1]; diabetic rat): suppress | amount of 8-hydroxy deoxyguanosine (oxidization marker) in urine ([1]; normal rat or spontaneously diabetic rat): decrease | cell death of PC12 cells induced by hydrogen peroxide (PC12 cells): significantly prevented

oxidized coenzyme Q
symptom improving effect [2]: shows a symptom improving effect

COC1=C(OC)C(=O)C(C/C=C(\C)CC/C=C(\C)CC/C=C(\C)CC/C=C(\C)CC/C=C(\C)CC/C=C(\C)CC/C=C(\C)CC/C=C(\C)CC/C=C(\C)CCC=C(C)C)=C(C)C1=O [Oxidized coenzyme Q10, oxidized coenzyme Q10]
toxicity (rat): no toxicity was observed
